# Patent US12133842B2, “Stable preservative-free mydriatic and anti-inflammatory solutions for injection” (RAYNE INTRAOCULAR LENSES LIMITED, priority 2012, dated 2024)
# “Also recorded” adds a separate entry of the source. Counter-ions that a name gives are not always drawn.
# Legend:
# [1] = test system: African green monkey model of human phacoemulsification surgery; assay: Phenylephrine and ketorolac combination (90 μM PE, 30 μM KE) irrigation in phacoemulsification surgical model, Example 7; type: in vivo
# Description: (§1) In each case an aliquot of the formulation was injected into a balanced salt solution (BSS, Baxter Healthcare, produce code 1A7233) as the irrigation vehicle carrier to a particular final dosing concentration as described below. The studies also utilized Proparacaine HCl (0.5%, Bausch & Lomb), Tropicamide (1.0%, Bausch & Lomb) and Ciprofloxacin HCl (3%, Alcon) to the extent described below.
# (§2) The mydriatic and anti-inflammatory properties of the test agents were evaluated in an African green monkey model of human phacoemulsification surgery. Prior to surgery, baseline measures and assessments were performed on both eyes in each monkey to determine pupil diameter, lens and iris integrity, corneal thickness, and anterior chamber flare and cell count by qualitative scoring under biomicroscopy and quantitative flare photometry using a Kowa FM-500 instrument. A phacoemulsification surgery with lens replacement with a polymethyl methacrylate (PMMA) artificial lens was performed using a Storz Premier anterior phacoemulsification machine. […]
# In these studies, laser flare photometry was performed at baseline, 4.5, 24, 48 hours and 1 week after the initiation of the surgical procedure using a Kowa FM-500 (Kowa Company, Tokyo Japan). The Kowa FM-500 measures laser light scattering to quantify anterior chamber flare. […] This light scattering is quantified by a photomultiplier tube as photon counts per millisecond. At each observation point, measurements were collected until seven acceptable readings (difference between two background measurements <15%) were obtained and the lowest and highest readings were deleted and the mean value+/−the standard deviation calculated, as specified by the manufacturer.
# The time course of the mydriatic effect was documented through video recording of the pupil during the perfusion procedure. Pupil diameter and the fixed width of the lid speculum (11 mm) were measured from the screen image to allow calculation of the pupil diameter in millimeters. […]
# [2] = test system: African green monkey model of human phacoemulsification surgery; assay: Concentration-ranging study of phenylephrine and ketorolac, intraoperative irrigation, phacoemulsification surgical model, Example 6; type: in vivo
# Description: as §1
# The mydriatic and anti-inflammatory properties of the test agents were evaluated in an African green monkey model of human phacoemulsification surgery. Prior to surgery, baseline measures and assessments were performed on both eyes in each monkey to determine pupil diameter, lens and iris integrity, corneal thickness, and anterior chamber flare and cell count by qualitative scoring under biomicroscopy and quantitative flare photometry using a Kowa FM-500 instrument. A phacoemulsification surgery with lens replacement with a polymethyl methacrylate (PMMA) artificial lens was performed using a Storz Premier anterior phacoemulsification machine. The procedure was only performed on the right eye to minimize surgery position variability, allow the left to serve as control, and to minimize the consequence of any possible vision loss induced.
# Test animals were placed in a prone position under ketamine/xylazine anesthesia augmented with one drop of topical proparacaine. A small incision was made in the cornea of the right eye with a MVR 20 G lance blade, through which 0.4-0.6 mL of viscoelastic (2% hydroxypropyl methylcellulose, EyeCoat, Eyekon Medical) was introduced into the anterior chamber via a viscoelastic injector. A corneal incision was made 1.0 mm anterior to the limbus using a 2.65 mm straight clear cornea bi-beveled blade. Irrigation was applied with the phacoemulsification hand piece to remove viscoelastic and introduce the test perfusate. After irrigation for a total of four minutes, irrigation was stopped and the anterior chamber refilled with viscoelastic. A capsulorhexis was performed and the phacoemulsification tip reintroduced into the anterior chamber with the application of phacoemulsification energy to disrupt the lens and allow aspiration and lens fragment removal. Irrigation was extended for a period after lens removal to standardize intraocular perfusate delivery across all treatment groups (a total of 14 minutes during this phacoemulsification segment of the irrigation). Following the phacoemulsification and irrigation procedure, a PMMA intraocular lens (IOL) was inserted and an additional two minutes of irrigation perfumed, after which the corneal incision was closed with two 12.0 nylon sutures. Irrigation with a test fluid or vehicle control, as described below, was performed for a total of 20 minutes at a flow rate of 20 mL/min, prior to, during and after phacoemulsification and lens replacement.
# In these studies, laser flare photometry was performed at baseline, 4.5, 24, 48 hours and 1 week after the initiation of the surgical procedure using a Kowa FM-500 (Kowa Company, Tokyo Japan). The Kowa FM-500 measures laser light scattering to quantify anterior chamber flare. A laser is directed into the anterior chamber and protein molecules, released into the anterior chamber during an inflammatory response, pass through the focal point scattering laser light. This light scattering is quantified by a photomultiplier tube as photon counts per millisecond. At each observation point, measurements were collected until seven acceptable readings (difference between two background measurements <15%) were obtained and the lowest and highest readings were deleted and the mean value+/−the standard deviation calculated, as specified by the manufacturer.
# The time course of the mydriatic effect was documented through video recording of the pupil during the perfusion procedure. Pupil diameter and the fixed width of the lid speculum (11 mm) were measured from the screen image to allow calculation of the pupil diameter in millimeters.
# [3] = test system: African green monkeys undergoing phacoemulsification surgery with lens replacement; assay: GLP toxicology (safety) study of PE-KE irrigation in phacoemulsification surgery, Example 9; type: in vivo, African green monkey; settings: tropicamide control group; thirty seconds after intracameral 150 μl BSS alone
# Description: as §1
# as §2, with “instrument.” for “instrument. A phacoemulsification surgery with lens replacement with a polymethyl methacrylate (PMMA) artificial lens was performed using a Storz Premier anterior phacoemulsification machine.”
# A nonclinical GLP toxicology study was carried out in African green monkeys. […] Three concentrations were evaluated: 720 μM PE and 90 μM KE (720:90 μM) in the low concentration group, 2160 μM PE and 270 μM KE (2160:270 μM) in the mid concentration group, and 7200 μM PE and 900 μM KE (7200:900 μM) in the high concentration group.
# A separate control group was evaluated as well. […]
# [4] = cited from earlier work
# [5] = test system: subjects undergoing unilateral cataract extraction with lens replacement (CELR); assay: Phase 2b human clinical study, irrigation during cataract extraction with lens replacement (CELR), Example 10; type: in vivo; settings: for Subjects Having Pupil Diameter <6 mm during CELR (number of subjects) / Subjects Having Pupil Diameter <6 mm during CELR (percent): intent-to-treat, n = 49 combination, 52 KE, 49 PE
# Description: A Phase 2b human clinical study evaluated a ketorolac and phenylephrine combination drug composition, formulated in accordance with Formula 1 of the present invention-, for its effect on the maintenance of intra-operative mydriasis (pupil dilation) and reduction of postoperative pain and irritation resulting from cataract and other lens replacement surgery. The combination drug composition was diluted into a balanced salt solution irrigation carrier prior to intraocular administration during intraocular surgical procedures.
# The subject Phase 2b study was a randomized, parallel group, vehicle-controlled, factorial design study, and was run to compare phenylephrine (PE), ketorolac (KE) and the combination drug composition containing both PE and KE in subjects undergoing unilateral cataract extraction with lens replacement (CELR) using a coaxial phacoemulsification process with insertion of an acrylic lens. Administration of test irrigation solutions occurred in a double-masked fashion. The study evaluated, in a four-arm full-factorial design, the contribution of the two active pharmaceutical ingredients (PE and KE, alone and in combination) to the maintenance of mydriasis and post-operative reduction in pain when administered diluted in balanced salt solution (BSS). The study also explored the effect of the combination drug composition, PE, and KE on postoperative inflammation. Subjects were randomized to one of the following four treatment arms in a 1:1:1:1 fashion: • a. BSS vehicle • b. 483 μM PE in BSS • c. 89 μM KE in BSS • d. the combination drug composition containing 483 μM PE and 89 μM KE in BSS.
# All subjects in this study received preoperative mydriatics and anesthetics. In each of the four groups, the respective irrigation treatment was administered as a single irrigation of the anterior chamber of the eye during the CELR surgical procedure, with a mean of 8 minutes of exposure in this study. In addition, at the end of the procedure, the anterior chamber was filled with the irrigation treatment. The change in pupil diameter over time from surgical baseline (immediately prior to surgical incision) to the end of the surgical procedure (wound closure) was measured, as was postoperative pain on the day of operation as measured by the Visual Analog Scale (VAS) at 2, 4 6, 8 and 10-12 hours and at other times recorded by the patient prior to taking rescue pain medication.
molecule,measurement,setting,value
tropicamide,mean pupil diameter,"[1]; control arm of previous efficacy studies, preoperative topical 1% tropicamide",5.9 mm
same,time at which pupil diameter plateaued,"[1]; monkey, in vivo",approximately 2.5 minutes
same,maximal dilation relative to PE-KE group,[1]; topical tropicamide 20 minutes before BSS irrigation,lower maximal dilation than exhibited by the PE-KE treatment group
same,maximal pupil dilation relative to phenylephrine groups,[2]; two drops 1% topical 20 minutes before BSS irrigation,"lower maximal dilation than exhibited by the mid, high and highest concentration phenylephrine groups"
same,pupil diameter,[3],5.18±0.18 mm
"CNC[C@H](O)c1cccc(O)c1 [phenylephrine, (−)-m-Hydroxy-a-[(methylamino)methyl]benzyl alcohol hydrochloride]",solubility,[4]; water and alcohol,freely soluble in water and alcohol
same,pupil dilation after adding phenylephrine to ketorolac or BSS perfusate,[2]; 30 μM phenylephrine added at two minutes,rapid dilation occurred
same,"maximal mydriasis attained, dependence on concentration","[2]; 3, 10, 30, 90 μM",concentration-dependent
same,flare measures relative to tropicamide control,"[2]; all time points, Student Newman-Keuls, hydrochloride",no treatment effect on flare measures; also recorded: no significant difference between treatment groups
same,mean dilation (pupil diameter) at later time points,"[2]; high phenylephrine group (30 μM), approaches anatomic limit",~8.3 mm
same,concentration resulting in mydriasis exceeding preoperative topical 1% tropicamide,[2]; in BSS perfusate,≥ 10 µM
same,mydriasis onset and maintenance (video pupil data),[2]; phenylephrine 3-90 μM in BSS anterior chamber perfusate,rapid onset mydriasis which was maintained throughout the surgical procedure
same,"flare photometry and pachymetry measures (anterior chamber inflammation, corneal edema)",[2]; phenylephrine added to perfusate,did not indicate a reduction in anterior chamber inflammation or corneal edema
same,Subjects Having Pupil Diameter <6 mm during CELR (number of subjects),[5],11
same,Subjects Having Pupil Diameter <6 mm during CELR (percent),[5],22%
"O=C(c1ccccc1)c1ccc2n1CCC2C(=O)O (racemic) [ketorolac, (+/−)-5-Benzoyl-2,3-dihydro-1H-pyrrolizine-1-carboxylic acid:2-amino-2(hydroxymethyl)-1,3-propanediol (1:1)]",solubility of three crystal forms,[4]; water,equally soluble in water
same,flare measurements versus control at 24 and 48 hours,"[2]; high and mid dose ketorolac, not statistically significant",remained lower relative to the control group
same,mydriasis relative to BSS alone,"[2]; ketorolac 3-30 μM in BSS, initial two minutes before phenylephrine",No statistical differences; also recorded: did not result in a change in mydriasis substantially different from that observed with BSS alone
same,flare measures / anterior chamber inflammation versus BSS control at 4.5 hours,"[2]; mid (10 μM) and high (30 μM) ketorolac groups combined, F=5.17, P<0.0223",statistically significant difference; also recorded: positive effect of ketorolac on anterior chamber inflammation
same,anti-miotic effect,[5]; 89 μM KE with 483 μM PE,provided an anti-miotic effect on top of the effect of phenylephrine
same,subjects with extreme constriction (pupil reduction of 2.5 mm or more),[5]; 483 μM PE and/or 89 μM KE in BSS,21%
same,Subjects Having Pupil Diameter <6 mm during CELR (number of subjects),[5],18
same,Subjects Having Pupil Diameter <6 mm during CELR (percent),[5],35%
